Experimental data from patent publication US20230295162A1 (EÖTVÖS LORÁND TUDOMÁNYEGYETEM, priority 2020, published 2023).

Experiments:
[1] = system: A-431 (human squamous carcinoma) cells; experiment: Short term cytotoxicity, MTT assay; assay type: cell-based; details: 1 h treatment then 72 h culture, read-out: cytotoxicity expressed in IC50, A-431
Experimental: (§1) For the short term cytotoxicity studies the A-431 (human squamous carcinoma) and U-87 (human primary glioblastoma) cells were cultured in RPMI-1640 medium supplemented with 10% FCS (fetal calf serum, Sigma Ltd.), 2 mM L-glutamine, and […] gentamicin. Cell cultures were maintained at 37° C. in a humidified atmosphere with 5% CO2. The cells were grown to confluency and were distributed into 96-well plate with initial cell number of 5.0×10^3 per well. After 24 h incubation at 37° C., the cells were treated with the compounds in 200 μL final volume containing 1.0 v/v % DMSO. The cells were incubated with the compounds at 10^−4-10^2 μM concentration range for 1 h. Control cells were treated with serum free medium (RPMI-1640) only or with DMSO (c=1.0 v/v %) at 37° C. for 1 h. After incubation the cells were washed twice with serum free (RPMI-1640) medium. To determine the in vitro cytostatic effect, the cells were cultured for a further 72 h in 10% serum containing medium. MTT-solution ([…], 2 mg/mL, final concentration: 0.37 mg/mL) was added to each well. The respiratory chain [26, 27] and other electron transport systems reduce MTT and thereby form non-water-soluble violet formazane crystals within the cell. […] After 4 h of incubation the cells were centrifuged for 5 min (900 g) and the supernatant was removed. The obtained formazane crystals were dissolved in DMSO ([…]) and optical density (OD) of the samples was measured at λ=540 and 620 nm, respectively, using ELISA Reader (iEMS Reader, Labsystems, Finland). OD620 values were subtracted from OD540 values. The percent of cytostasis was calculated by using the following equation: Cytostatic effect (%)=[1−(ODtreated/ODcontrol)]×100 Values ODtreated and ODcontrol correspond to the optical densities of the treated and the control cells, respectively. In each case two independent experiments were carried out with 4 parallel measurements. […] The curves were defined using Microcal™ Origin1 (version 7.5) software: cytostasis was plotted as a function of concentration, fitted to a sigmoidal curve, and based on this curve, the half maximal inhibitory concentration (IC50) value was determined.

[2] = system: U-87 (human primary glioblastoma) cells; experiment: Short term cytotoxicity, MTT assay; assay type: cell-based; details: 1 h treatment then 72 h culture, read-out: cytotoxicity expressed in IC50, U-87
Experimental: as §1

[3] = system: MDA-MB-231 human triple-negative breast cancer xenografts; experiment: Antitumoral effect on subcutaneous MDA-MB-231 tumor xenografts in SCID mice (Example 23); assay type: in vivo; details: intraperitoneal
Experimental: MDA-MB-231 human triple-negative breast cancer xenografts were formed by subcutaneous inoculation of tumor cells into the back of the immunodeficient (SCID) mice. The investigated materials were injected into the animals intraperitoneal every two-three days for 3 weeks.
Forty SCID mice were included in the experiment. Each animal group was kept in separate cage during the experiments. On each cage, there was an identification card with birth date, the date of tumor cell injection, number and gender of animals. The injection of each substance was written on the identification card. Eight animals per substance were used and identified by ear cutting.
MDA-MB-231 human triple-negative breast cancer cells were grown in RPMI-1640 Medium (Sigma Chemical Co., St. Louis, MO), supplemented with 10% fetal bovine serum (Sigma) and 1% penicillin-streptomycin (Sigma) at 37° C. in a humidified atmosphere of 5% CO2. […]
During the experiment weight of the animals and size of the tumors were recorded.
Tumor volume was determined three times a week during the experiment.
Anti-tumor effect of compounds was evaluated also measuring tumor weight in each group after termination of experiment (FIGS. 64 and 65).

SMILES | IC50 [1] [µM] | IC50 [2] [µM] | tumor volume / tumor growth ([3]; 3 weeks, vs control (Student's t-test)) | tumor weight after termination ([3]; after termination of experiment, vs control)
O=C1C2=C(CCN(Cc3cccc(F)c3)C2)N2CCN=C2N1Cc1ccc(C(F)(F)F)cc1 [I/3, reference compound] | < 0.2 | 4.16 |  | 
O=C1C2=C(CCN(Cc3cc(F)cc(F)c3)C2)N2CCN=C2N1Cc1ccc(Cl)cc1 [I/124, 4-(4-Chlorobenzyl)-7-(3,5-difluorobenzyl)-2,4,6,7,8,9-hexahydroimidazo[1,2-a]pyrido[3,4-e]pyrimidin-5(1H)-one] |  |  | significant | highest, significant inhibition
